For 11 compounds, IC50 results are on record in US12612410B2 (CHILDREN'S HOSPITAL MEDICAL CENTER, priority 2020, dated 2026).

One test deals with T1, IRAK1 (Homo sapiens, UniProt P51617).
T1 construct: purchased Reaction Biology (RBC), HotSpot kinase assay
Briefly: RBC HotSpot Kinase Assay, IRAK1. It is filed as biochemical. The conditions noted are these: isolated kinase, 33P-ATP. In a few lines:
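Read-out was P81 filter binding of 33P incorporated into substrate by isolated kinase during a 2 h room-temperature reaction. Compound was preincubated with enzyme for 20 min at room temperature; buffer was Hepes pH 7.5 with Mg2+, EGTA, Brij35 and 1% DMSO.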

A further test has as its target T2, IRAK4 (Homo sapiens, UniProt Q9NWZ3).
T2 sequence (Q9NWZ3 1-460): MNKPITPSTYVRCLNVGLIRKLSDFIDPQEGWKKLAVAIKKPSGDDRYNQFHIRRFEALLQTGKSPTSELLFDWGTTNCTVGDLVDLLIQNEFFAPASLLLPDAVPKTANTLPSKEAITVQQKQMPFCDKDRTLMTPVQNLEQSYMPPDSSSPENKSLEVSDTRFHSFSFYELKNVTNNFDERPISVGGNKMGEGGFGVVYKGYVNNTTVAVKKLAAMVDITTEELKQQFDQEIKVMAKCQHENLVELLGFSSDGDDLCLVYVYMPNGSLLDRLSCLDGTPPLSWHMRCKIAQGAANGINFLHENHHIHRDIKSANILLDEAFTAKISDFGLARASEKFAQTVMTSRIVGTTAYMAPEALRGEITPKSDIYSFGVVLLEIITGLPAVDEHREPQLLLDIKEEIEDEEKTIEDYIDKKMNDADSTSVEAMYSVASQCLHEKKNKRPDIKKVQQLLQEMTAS
Put plainly: Reaction Biology NanoBRET target engagement assay, IRAK4. Format: cell-based. The conditions noted are these: transfected HEK-293 cells. The text has this:
The NanoBRET assay measures kinase engagement in real time in the context of the intact cell. Unlike the previously described biochemical kinase assay methodologies in Examples 26-27, the NanoBRET assay measures the binding and activity characteristics under equilibrium conditions using full-length kinases in the presence of cellular concentrations of ATP in live, uncompromised cells. As such, the assay provides a more relevant assessment of kinase potency and selectivity that would be expected to be observed in the native cellular environment, where potency is often considerably lower than that observed in the isolated biochemical assays (Vasta, J. D. et al., (2018) Cell Chem. Biol. 25, 206-214). The assay uses a Kinase-NanoLuc® fusion vector expressing a kinase protein to which a luciferase tag has been added, a cell-permeant fluorescent NanoBRET™ tracer, a NanoLuc® substrate, and an extracellular NanoLuc® inhibitor. Upon expression of the luciferase-tagged kinase, cells will produce a strong BRET signal only in the presence of the NanoBRET™ tracer. The extracellular NanoLuc® inhibitor ensures that the BRET signal observed emanates only from live cells. Because the BRET signal has tight distance constraints, addition of the test compound will decrease the BRET signal if the compound competes with the NanoBRET™ tracer for binding to the kinase domain. Under the appropriate tracer conditions established by the manufacturer, quantitative intracellular affinity and relative potency can then be determined using Mass Action model equations.
HEK-293 cells were purchased from ATCC. FuGENEHD Transfection Reagent, Kinase-NanoLucfusion plasmids, Transfection Carrier DNA, NanoBRETTracers and dilution buffer, NanoBRETNano-Glo Substrate, Extracellular NanoLucInhibitor were obtained from Promega.
Assays were conducted following Promega assay protocol with some modifications. HEK-293 Cells were transiently transfected with Kinase-NanoLucFusion Vector DNA by FuGENEHD Transfection Reagent. Testing compounds were delivered into 384 well assay plate by Echo 550 (Labcytelnc, Sunnyvale, CA). Transfected cells were harvested and mixed with NanoBRETTracer Reagent and dispensed into 384 well plates and incubated at 37° C. in 5% CO2 cell culture incubator for 1 hour. The NanoBRETNano-Glo Substrate plus Extracellular NanoLucInhibitor Solution were added into the wells of the assay plate and incubated for 2-3 minutes at room temperature. The donor emission wavelength (460 nm) and acceptor emission wavelength (600 nm) were measured in the EnVisionplate reader. The BRET Ratios were calculated. BRET Ratio=[(Acceptor sample÷Donor sample)−(Acceptor no-tracer control÷Donor no-tracer control)]. The IC50 values of compounds were calculated with Prism GraphPad program.
NanoBRET™ Target Engagement Assay Protocol
1. Transient Transfection of HEK-293 Cells NanoLuc® Fusion Vector DNA
• 1). Cultivate HEK-293 cells (70-80% confluence) appropriately prior to assay. Trypsinize and collect HEK-293 cells. • 2). Prepare lipid: DNA complexes as follows: • a. Prepare a […] solution of DNA in Opti-MEM without serum that consists of the following ratios of carrier DNA and DNA encoding NanoLuc® fusion. 9.0 µg/mL of Transfection Carrier DNA, […] of NanoLuc fusion vector DNA and 1 mL of Opti-MEM without phenol red. Mix thoroughly. • b. Add 30 l of FuGENE HD Transfection Reagent into each milliliter of DNA mixture to form lipid: DNA complex. • c. Mix by inversion 10 times. • d. Incubate at ambient temperature for 20 minutes to allow complexes to form. • 3). In a sterile, conical tube, mix 1 part of lipid: DNA complex with 20 parts of HEK-293 cells in suspension. Mix gently by inversion 5 times. • 4). Dispense cells+lipid: DNA complex into a sterile tissue culture dish and incubate for 22-24 hours. 2. Addition of Test Compounds (dry plate shooting)
Each test compound is delivered from the compound source plate to the wells of 384-well white NBS plate by Echo 550.
3. […]

T1 sequence (P51617 whole entry): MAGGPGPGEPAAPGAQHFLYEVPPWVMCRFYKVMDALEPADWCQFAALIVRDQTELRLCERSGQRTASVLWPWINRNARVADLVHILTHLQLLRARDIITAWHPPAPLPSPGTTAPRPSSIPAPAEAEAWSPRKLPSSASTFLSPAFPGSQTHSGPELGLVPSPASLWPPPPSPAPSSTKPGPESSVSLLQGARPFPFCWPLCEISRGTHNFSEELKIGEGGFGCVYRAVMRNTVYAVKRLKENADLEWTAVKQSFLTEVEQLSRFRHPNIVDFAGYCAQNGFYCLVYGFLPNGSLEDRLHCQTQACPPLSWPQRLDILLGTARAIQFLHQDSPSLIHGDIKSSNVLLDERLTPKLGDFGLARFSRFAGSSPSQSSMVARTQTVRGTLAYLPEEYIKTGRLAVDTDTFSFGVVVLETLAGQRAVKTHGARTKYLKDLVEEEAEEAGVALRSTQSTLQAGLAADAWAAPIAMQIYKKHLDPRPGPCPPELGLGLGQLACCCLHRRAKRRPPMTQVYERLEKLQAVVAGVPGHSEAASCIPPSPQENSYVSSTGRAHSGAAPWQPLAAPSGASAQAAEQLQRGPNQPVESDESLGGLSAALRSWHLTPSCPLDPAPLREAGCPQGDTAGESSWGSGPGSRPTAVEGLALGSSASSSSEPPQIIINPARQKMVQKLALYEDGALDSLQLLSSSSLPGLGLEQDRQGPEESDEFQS

`FC(F)COc1cn2c(-c3cccc(N[C@H]4CNC[C@@H]4F)n3)cnc2cn1` [Compound 58, 6-(6-(2,2-difluoroethoxy)imidazo[1,2-a]pyrazin-3-yl)-N-((3S,4S)-4-fluoropyrrolidin-3-yl)pyridin-2-amine]: the values for the half-maximal inhibitory concentration (IC50) against IRAK1 and against IRAK4 were 117 nM and less than 0.5 nM, respectively.

`O=S1(=O)CCCN1c1cn2c(-c3cccc(N[C@H]4CNCC[C@@H]4F)n3)cnc2cn1` [Compound 97, 2-(3-(6-(((3S,4S)-4-fluoropiperidin-3-yl)amino)pyridin-2-yl)imidazo[1,2-a]pyrazin-6-yl)isothiazolidine 1,1-dioxide]: the IC50 at IRAK1 amounted to 53 nM; at IRAK4, 0.9 nM.

For `O=C1CCCN1c1cn2c(-c3nc(N[C@H]4CNCC[C@@H]4F)c(F)cc3F)cnc2cn1` [Compound 107, 1-[3-[3,5-difluoro-6-[[(3S,4S)-4-fluoro-3-piperidyl]amino]-2-pyridyl]imidazo[1,2-a]pyrazin-6-yl]pyrrolidin-2-one], the half-maximal inhibitory concentration (IC50) on IRAK1 amounted to 130 nM; against IRAK4, 10 nM.

As for `O=C1CCCN1c1cn2c(-c3nc(N[C@@H]4CCCNC4)c(F)cc3F)cnc2cn1` [Compound 108, (R)-1-(3-(3,5-difluoro-6-(piperidin-3-ylamino)pyridin-2-yl)imidazo[1,2-a]pyrazin-6-yl)pyrrolidin-2-one], the results for the IC50 at IRAK1 and against IRAK4 were 109 nM and 1 nM, respectively.

Take `O=C1CCCN1c1cn2c(-c3cccc(N[C@H]4CNCC[C@@H]4F)n3)cnc2cn1` [Compound 119, 1-(3-(6-(((3S,4S)-4-fluoropiperidin-3-yl)amino)pyridin-2-yl)imidazo[1,2-a]pyrazin-6-yl)pyrrolidin-2-one]: the IC50 on IRAK1 stood at 110 nM; against IRAK4 it was 2 nM.

Take `O=C1CCCN1c1cn2c(-c3cccc(N[C@H]4CNC[C@@H]4F)n3)cnc2cn1` [Compound 121, 1-(3-(6-(((3S,4S)-4-fluoropyrrolidin-3-yl)amino)pyridin-2-yl)imidazo[1,2-a]pyrazin-6-yl)pyrrolidin-2-one]: the half-maximal inhibitory concentration (IC50) on IRAK1 amounted to 207 nM; at IRAK4, 2 nM.

As to `CC(C)(C)c1cn2c(-c3nc(N[C@H]4CNC[C@@H]4F)c(F)cc3F)cnc2cn1` [Compound 125], the values for the IC50 on IRAK1 and against IRAK4 were 51 nM and less than 0.5 nM, respectively.

On to `CC(C)(C)c1cn2c(-c3nc(N[C@@H]4CCCNC4)c(F)cc3F)cnc2cn1` [Compound 126, (R)-6-(6-(tert-butyl)imidazo[1,2-a]pyrazin-3-yl)-3,5-difluoro-N-(piperidin-3-yl)pyridin-2-amine], for which the IC50 at IRAK1 was 80 nM; at IRAK4, less than 0.5 nM.

For `CC(C)(C)c1cn2c(-c3nc(N[C@H]4CNCC[C@@H]4F)c(F)cc3F)cnc2cn1` [Compound 127, 6-(6-(tert-butyl)imidazo[1,2-a]pyrazin-3-yl)-3,5-difluoro-N-((3S,4S)-4-fluoropiperidin-3-yl)pyridin-2-amine], the IC50 against IRAK1 turned out to be 60 nM; at IRAK4, 0.4 nM.

Regarding `CC(C)(C)c1cn2c(-c3cccc(N[C@@H]4CCCNC4)n3)cnc2cn1` [Compound 129, (R)-6-(6-(tert-butyl)imidazo[1,2-a]pyrazin-3-yl)-N-(piperidin-3-yl)pyridin-2-amine], the IC50 against IRAK1 is 97 nM; at IRAK4, less than 0.5 nM.

For the compound `CC(C)(C)c1cn2c(-c3cccc(N[C@H]4CNCC[C@@H]4F)n3)cnc2cn1` [Compound 130, 6-(6-(tert-butyl)imidazo[1,2-a]pyrazin-3-yl)-N-((3S,4S)-4-fluoropiperidin-3-yl)pyridin-2-amine], the IC50 on IRAK1 is 49 nM; on IRAK4 it was less than 0.5 nM.
